Experimental findings from ChEMBL document CHEMBL3779844, “Biocatalyzed synthesis of difuranosides and their ability to trigger production of TNF-α” (2016) are described below.

The source made the active and inactive calls. No cut-off for these calls is given here.

For the first experiment, the system named is RAW264.7. Nature of the experiment: Immunomodulatory activity in mouse RAW264.7 cells assessed as TNF alpha production at 1 to 1000 ng/ml after 18 hrs by ELISA method (reference value: 4.4 +/- 3.4 pg/ml). The class given is functional. A general note: ELISA stands for enzyme-linked immunosorbent assay.
Take `O=[N+]([O-])c1ccc(O[C@@H]2O[C@@H]([C@H](O)CF)[C@H](O)[C@H]2O[C@@H]2O[C@@H]([C@H](O)CF)[C@H](O)[C@H]2O)cc1`: the Activity is more than 200 pg/mL.

For another experiment, the system named is RAW264.7. Nature of the experiment: Immunomodulatory activity in mouse RAW264.7 cells assessed as increase in TNF alpha production after 18 hrs by ELISA method (reference value: 4.4 +/- 3.4 pg/ml). In kind it is functional.
`CCCCCCCCO[C@@H]1O[C@@H]([C@H](O)CF)[C@H](O)[C@H]1O[C@@H]1O[C@@H]([C@H](O)CF)[C@H](O)[C@H]1O`: the Activity was 600 pg/mL.

A further experiment deals with RAW264.7. Kind of experiment: Immunomodulatory activity in mouse RAW264.7 cells assessed as TNF alpha production at 1 to 1000 ng/ml after 18 hrs by ELISA method. The class given is functional, cell-based.
Turning to `C[C@@H](O)[C@@H]1O[C@@H](O[C@H](CO)[C@@H]2O[C@@H](Oc3ccc([N+](=O)[O-])cc3)[C@H](O)[C@H]2O)[C@H](O)[C@H]1O`, the result was inactive. On the same count and under the same terms, the same measure for `C[C@@H](O)[C@@H]1O[C@@H](OC[C@@H](O)[C@@H]2O[C@@H](Oc3ccc([N+](=O)[O-])cc3)[C@H](O)[C@H]2O)[C@H](O)[C@H]1O`: “inactive”; for `C[C@@H](O)[C@@H]1O[C@@H](O[C@H]2[C@H](O[C@H]3[C@H](Oc4ccc([N+](=O)[O-])cc4)O[C@@H]([C@H](O)CO)[C@@H]3O)O[C@@H]([C@@H](C)O)[C@@H]2O)[C@H](O)[C@H]1O`: “Active”. On the same count and under the same terms, with `CCCCCCCCO[C@H]1O[C@H]([C@@H](O)CO)[C@@H](O)[C@@H]1O[C@@H]1O[C@@H]([C@@H](O)CO)[C@H](O)[C@H]1O[C@@H]1O[C@@H]([C@@H](O)CO)[C@H](O)[C@H]1O` (stereo in doubt) the entry was “Active”; with `C[C@@H](O)[C@@H]1O[C@@H](O[C@@H]2[C@@H](O)[C@H](Oc3ccc([N+](=O)[O-])cc3)O[C@H]2[C@H](O)CO)[C@H](O)[C@H]1O`, “inactive”; with `C[C@@H](O)[C@@H]1O[C@@H](O[C@H]2[C@H](Oc3ccc([N+](=O)[O-])cc3)O[C@@H]([C@H](O)CO)[C@@H]2O)[C@H](O)[C@H]1O`, “inactive”. Same read-out and setting: the same measure for `CCCCCCCCO[C@@H]1O[C@@H]([C@H](O)CO[C@@H]2O[C@@H]([C@H](O)CO)[C@H](O)[C@H]2O)[C@H](O)[C@H]1O`: “Active”.

In the case of `O=[N+]([O-])c1ccc(O[C@@H]2O[C@@H]([C@H](O)CO)[C@H](O)[C@H]2O[C@@H]2O[C@@H]([C@H](O)CF)[C@H](O)[C@H]2O)cc1`, the result was inactive. As for `CCCCCCCCO[C@H]1O[C@H]([C@@H](O)CF)[C@@H](O)[C@@H]1O[C@@H]1O[C@@H]([C@@H](O)CO)[C@H](O)[C@H]1O[C@@H]1O[C@@H]([C@@H](O)CO)[C@H](O)[C@H]1O` (stereo in doubt), the result was Active. Same read-out and setting: with `O=[N+]([O-])c1ccc(O[C@@H]2O[C@@H]([C@H](O)CO)[C@H](O)[C@H]2O[C@@H]2O[C@@H]([C@H](O)CO)[C@H](O)[C@H]2O)cc1` the entry was “Active”.

On to `O=[N+]([O-])c1ccc(O[C@@H]2O[C@@H]([C@H](O)CO)[C@H](O)[C@H]2O[C@@H]2O[C@@H]([C@H](O)CO)[C@H](O)[C@H]2O[C@@H]2O[C@@H]([C@H](O)CO)[C@H](O)[C@H]2O)cc1`, for which the outcome was Active. The same measure, in the same setting: with `CCCCCCCCO[C@@H]1O[C@@H]([C@H](O)CO)[C@H](O)[C@H]1O[C@@H]1O[C@@H]([C@H](O)CO)[C@H](O)[C@H]1O` the entry was “Active”; with `CCCCCCCCO[C@@H]1O[C@@H]([C@H](O)CO)[C@H](O)[C@H]1O[C@H]1O[C@H]([C@@H](O)CO)[C@@H](O)[C@@H]1O[C@@H]1O[C@@H]([C@@H](O)CO)[C@H](O)[C@H]1O[C@@H]1O[C@@H]([C@@H](O)CO)[C@H](O)[C@H]1O` (stereo in doubt), “Active”; with `CCCCCCCCO[C@H]1O[C@H]([C@H](C)O)[C@@H](O)[C@@H]1O[C@@H]1O[C@@H]([C@@H](O)CO)[C@H](O)[C@H]1O[C@@H]1O[C@@H]([C@@H](O)CO)[C@H](O)[C@H]1O` (stereo in doubt), “Active”.

With `CCCCCCCCO[C@@H]1O[C@@H]([C@H](O)CO)[C@H](O)[C@H]1O[C@@H]1O[C@@H]([C@H](O)CO)[C@H](O)[C@H]1O[C@H]1O[C@H]([C@H](O)CO)[C@@H](O)[C@@H]1O[C@@H]1O[C@@H]([C@@H](O)CO)[C@H](O)[C@H]1O[C@H]1O[C@H]([C@@H](O)CO)[C@@H](O)[C@@H]1O` (stereo in doubt), the result was Active. Still for that read-out and setting: the same measure for `O=[N+]([O-])c1ccc(O[C@@H]2O[C@@H]([C@H](O)CO[C@@H]3O[C@@H]([C@H](O)CF)[C@H](O)[C@H]3O)[C@H](O)[C@H]2O)cc1`: “inactive”.
